From patent publication US10842829B2, “Natural product to improve immunity and combat viral diseases, bacterial diseases, fungal diseases, and cancer diseases” (priority 2017, dated 2020)

What was measured:
mycoplasma = assay: Mycoplasma disease treatment; assay type: in vivo; conditions: three sheep
Experimental: The experiment was at four sheep farms. The sheep suffered from cough and high temperature (42° C.). When performing autopsy on dead sheep, the congestion in the lungs was clear. […] Ampicillin only affects the cell wall.
Another 10 sick sheep from each farm were isolated and treated with 5 ml of Tylosin and Enrofloxacin.

[1] = system: Streptococcus isolated from cow's milk; assay: Streptococcus germs cultured in a lab setting
[2] = system: NHDF cells (Normal Human Dermal Fibroblast cell line); assay: XTT proliferation assay on NHDF cells; assay type: cell-based
Experimental: FIGS. 20-23 and Tables F1-F4 relate to a study to determine the potency of novel natural extract compounds in inhibiting the proliferation of Normal Human Dermal Fibroblast cell line (NHDF cells). […] In this study: Compound I, III and IV which are arrangements of compound according to the present invention are evaluated in a XTT proliferation assay for 72 hours to determine its potency in inhibiting the proliferation of NHDF cells. Traditionally, the in-vitro determination of toxic effects of unknown compounds has been performed by counting viable cells after staining with a vital dye. The XTT system is a mean of measuring the activity of living cells via mitochondrial dehydrogenases. The XTT method is simple, accurate and yields reproducible results. […] Solutions of XTT, prepared in medium or balances salt solutions without phenol red, are yellowish in colour. Mitochondrial dehydrogenases of viable cells cleave the tetrazolium ring of XTT yielding orange formazon crystals which are soluble in aqueous solutions. The resulting orange colour is spectrophotometrically measured. The bio-reduction is XTT is inefficient but can be potentiated by the addition of an electron coupling agent such as phenazine methosulphate (PMS) to the reaction. An increase or decrease in cell numbers results in a concomitant change in the amount of formazon formed, indicating the degree of cytotoxicity caused by the test material. In the foregoing study the following kits and reagents were used: • Cells: NHDF, a Normal Human Dermal Fibroblast cell line (Lonza) • Media: FGM-2 bullet kit media • Cell culture T75 flasks (BD-Falcon-LAB353136) • 96 well cell clear tissue culture treated plates (BD-Falcon-LAB353072) • Dimethyl Sulphoxide (DMSO) (Sigma-D2650) • XT (Sigma-[…]) • PMS (Sigma-[…]) In the foregoing study, three arrangement of compound according to the present invention, which in FIGS. 20-23 and Tables F1-F4 are designated as compounds I, III and IV, were tested. In the foregoing study, the control or vehicle was sterile deionized water. In regard to experimental procedure, for seeding in a 96-well plate, the cells were re-suspended to a density of […] of complete FGM-2 Bullet kit medium. 80 μL of this cell suspension was added per well to seed 2000 cells per well. […] In the foregoing study, the following points relate to compound dilution and treatment: • 20 μL of stock (100×) was serially diluted (2×) in 20 μL of sterile deionized water. • 20 μL of each dilution was then added in triplicates in the previously seeded 96-well plate. • Cells treated with deionized water served as control. • 100 μL of complete Ham's F12 medium served as media blank for the data analysis. • 200 μL of PBS was added in all corner wells of the assay plate. Plate was then incubated for 72 hours in an incubator with 5% CO2 at 37° C. In the foregoing study, the following points relate to termination: • XTT reagent-1 mg/mL solution of XTT was made in serum-free Ham's F12 medium. […] The data was analyzed using GraphPad Prism Software. In regard to data generation in the foregoing study: • Raw data of OD values was obtained in the form of excel sheet from Victor X5 Multi-label Plate Reader. • Average of media blank and average of control was calculated. • Average media blank was subtracted from each experimental well and control.

[3] = system: HT-1080 cells (fibrosarcoma cell line); assay: XTT proliferation assay on HT-1080 cells; assay type: cell-based; conditions: Homo sapiens
Pasteurella = Pasteurella disease treatment; conditions: second group of 10 sheep, both antibiotics together

CC1(C)S[C@@H]2[C@H](NC(=O)[C@H](N)c3ccccc3)C(=O)N2[C@H]1C(=O)O [Ampicillin]
outcome of treatment (mycoplasma): they were not cured
killing of germs [1]: not all germs were killed

COc1cccc2c1C(=O)c1c(O)c3c(c(O)c1C2=O)C[C@@](O)(C(=O)CO)C[C@@H]3O[C@H]1C[C@H](N)[C@H](O)[C@H](C)O1 [Doxorubicin]
% Inhibition ([2]; Doxorubicin 0.000 μM): 24.6%
inhibition at 0.001 µM ([2]; Homo sapiens, Doxorubicin 0.001 μM): 17.9%
inhibition at 0.004 µM ([2]; Homo sapiens, Doxorubicin 0.004 μM): 25.9%
inhibition at 0.01 µM ([2]; Homo sapiens, Doxorubicin 0.01 μM): 26.9%
inhibition at 0.04 µM ([2]; Homo sapiens, Doxorubicin 0.04 μM): 33.9%
inhibition at 0.11 µM ([2]; Homo sapiens, Doxorubicin 0.11 μM): 37.5%
inhibition at 0.33 µM ([2]; Homo sapiens, Doxorubicin 0.33 μM): 68.6%
inhibition at 1 µM ([2]; Homo sapiens, Doxorubicin 1 μM): 86.4%
inhibition at 3 µM ([2]; Homo sapiens, Doxorubicin 3 μM): 57.1%
inhibition at 0.0002 µM ([3]; Doxorubicin 0.0002 μM): 16.1%
inhibition at 0.0005 µM ([3]; Doxorubicin 0.0005 μM): 14.9%
inhibition at 0.0014 µM ([3]; Doxorubicin 0.0014 μM): 22.1%
inhibition at 0.0041 µM ([3]; Doxorubicin 0.0041 μM): 28.9%
inhibition at 0.0123 µM ([3]; Doxorubicin 0.0123 μM): 63.6%
inhibition at 0.037 µM ([3]; Doxorubicin 0.0370 μM): 76.4%
inhibition at 0.1111 µM ([3]; Doxorubicin 0.1111 μM): 77.7%
inhibition at 0.3333 µM ([3]; Doxorubicin 0.3333 μM): 91%
inhibition at 1 µM ([3]; Doxorubicin 1 μM): 98.2%

NCC[C@H](O)C(=O)N[C@@H]1C[C@H](N)[C@@H](O[C@H]2O[C@H](CN)[C@@H](O)[C@H](O)[C@H]2O)[C@H](O)[C@H]1O[C@H]1O[C@H](CO)[C@@H](O)[C@H](N)[C@H]1O [amikacin]
killing of germs [1]: not all germs were killed

CC1=C(C(=O)O)N2C(=O)[C@@H](NC(=O)[C@H](N)c3ccccc3)[C@H]2SC1 [cephalexin]
killing of germs [1]: not all germs were killed

O=C(O)c1cn(C2CC2)c2cc(N3CCNCC3)c(F)cc2c1=O [ciprofloxacin]
killing of germs [1]: not all germs were killed

Cc1onc(-c2ccccc2Cl)c1C(=O)N[C@@H]1C(=O)N2[C@@H]1SC(C)(C)[C@@H]2C(=O)O [cloxacillin]
killing of germs [1]: not all germs were killed

CCN1CCN(c2cc3c(cc2F)c(=O)c(C(=O)O)cn3C2CC2)CC1 [enrofloxacin]
speed of improvement versus product group (Pasteurella): slower than in the first group
killing of germs [1]: not all germs were killed

CC[C@H]1OC(=O)[C@H](C)[C@@H](O[C@H]2C[C@@](C)(OC)[C@@H](O)[C@H](C)O2)[C@H](C)[C@@H](O[C@@H]2O[C@H](C)C[C@H](N(C)C)[C@H]2O)[C@](C)(O)C[C@@H](C)C(=O)[C@H](C)[C@@H](O)[C@]1(C)O [erythromycin]
killing of germs [1]: not all germs were killed

[H]/N=C(/N)N[C@H]1[C@H](O)[C@@H](O)[C@H](O[C@@H]2O[C@@H](C)[C@](O)(C=O)[C@H]2O[C@@H]2O[C@@H](CO)[C@H](O)[C@@H](O)[C@@H]2NC)[C@@H](N/C(N)=N\[H])[C@@H]1O [streptomycin]
killing of germs [1]: not all germs were killed

Spiramycin
killing of germs [1]: not all germs were killed

Tylozin
killing of germs [1]: not all germs were killed

gentamicin
killing of germs [1]: not all germs were killed

neomycin
killing of germs [1]: not all germs were killed

penicillin
killing of germs [1]: not all germs were killed
